# Measured values published in US20100129310A1, “STABILIZED DESLORATADINE COMPOSITION” (priority 2005, published 2010).
# Assay: Compatibility of desloratadine with excipient materials, N-formyl desloratadine by HPLC
# Assay type: physicochemical
# Description: Compatibility of desloratadine with various excipient materials was determined by mixing the drug and an excipient, then subjecting the mixture to direct exposure for 14 days at 40° C. and 75% relative humidity. The analytical results for the presence of N-formyl desloratadine in the samples (as determined by HPLC) were as tabulated below, where ratios are expressed on a weight basis. Desloratadine and polacrilin resin (AMBERLITE IRP64) were dispersed in water and stirred for 2 hours, isolated by filtration, and then dried at 60° C. until the loss on drying was not more than 10% w/w when tested using an infrared moisture balance at 105° C. Where citric acid was used, the quantity of citric acid was selected to adjust the pH of the dispersion to about 6.5. Where lactose was used, the quantity of lactose is 6 times the weight of other materials, and the lactose is dry mixed with the desloratadine or dried desloratadine-resin mixture.
smiles,measurement,setting,value
"Clc1ccc2c(c1)CCc1cccnc1C2=C1CCNCC1 [Desloratadine, 8-chloro-6,11-dihydro-11-(4-piperidinylidene)-5H-benzo[5,6]-cyclohepta[1,2-b]pyridine]",% N-Formyl DCL Initial,Initial,Nil
same,% N-Formyl DCL After exposure,direct exposure for 14 days at 40° C. and 75% relative humidity,Nil
